Measured values taken from patent US20030044399A1, “Method of treatment” (SmithKline Beecham Corporation, priority 1998, published 2003).
Read-outs that look alike come from different tables or passages of the source.

Tests used:
[1] = target: Rhodazain (Trypanosoma brucei rhodesiense, UniProt Q95PM0); experiment: Cysteine protease inhibition, progress curve method, rhodazain; format: biochemical, Trypanosoma brucei rhodesiensi; settings: 10 uM Cbz-Leu-Arg-AMC, 100 mM Na acetate pH 5.5, 5 mM cysteine
Procedure: Standard assay conditions for the determination of kinetic constants used 10 uM fluorogenic peptide substrate, Cbz-Phe-Arg-AMC for the cysteine proteases from Leishmania spp and Schistosoma Mansoni, Cbz-Leu-Arg-AMC for the cysteine proteases from Plasmodium falciparum and Trypanosoma brucei rhodesiensi, and Ac-Lys-Glu-Lys-Leu-Arg-AMC (4 uM final substrate concentration) for the cysteine protease from Trypoanosoma cruzi, and were determined in 100 mM Na acetate at pH 5.5 containing 5 mM cysteine. Stock substrate solutions were prepared at concentrations of […] in DMSO with 10 uM (4 uM for Ac-Lys-Glu-Lys-Leu-Arg-AMC) final substrate concentration in the assays. The final DMSO concentration was 2% and the final volume was 100 uL. All assays were conducted at ambient temperature. Product progress curves were generated over 20 to 30 minutes following formation of AMC product.
Potential inhibitors were evaluated using the progress curve method. Assays were carried out in the presence of variable concentrations of test compound. Reactions were initiated by addition of enzyme to buffered solutions of inhibitor and substrate. Data analysis was conducted according to one of two procedures depending on the appearance of the progress curves in the presence of inhibitors. For those compounds whose progress curves were linear, apparent inhibition constants (Ki,app) were calculated according to equation 1 (Brandt et al., Biochemitsry, 1989, 28, 140):
v=VmA/[Ka(1+I/Ki,app)+A] (1)
Where v is the velocity of the reaction with maximal velocity Vm, A is the concentration of substrate with Michaelis constant of Ka, and I is the concentration of inhibitor.
[AMC]=vsst+(v0−vss)[1−exp (−kobst)]/kobs (2)
Where [AMC] is the concentration of product formed over time t, v0 is the initial reaction velocity and vss is the final steady state rate. Values for kobs were then analyzed as a linear function of inhibitor concentration to generate an apparent second order rate constant (kobs/inhibitor concentration or kobs/[I]) describing the time-dependent inhibition. A complete discussion of this kinetic treatment has been fully described (Morrison et al., Adv. Enzymol. Relat. Areas Mol. Biol., 1988, 61, 201).
Exemplary inhibition data for the compounds used in the present method collected in accordance with the above-described procedure are listed in Table I.

[2] = target: Cruzain (Trypanosoma cruzi, UniProt P25779); experiment: Cysteine protease inhibition, progress curve method, cruzain; format: biochemical; settings: 4 uM Ac-Lys-Glu-Lys-Leu-Arg-AMC, 100 mM Na acetate pH 5.5, 5 mM cysteine; read-out: Cruzain Ki
Method in brief: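 Kinetic constants from AMC-release progress curves over 20–30 min at ambient temperature in 100 mM Na acetate pH 5.5, 5 mM cysteine, 2% DMSO; enzyme added last to inhibitor plus substrate. Substrates: 10 uM Cbz-Phe-Arg-AMC (Leishmania, Schistosoma), 10 uM Cbz-Leu-Arg-AMC (falcipain), 4 uM Ac-Lys-Glu-Lys-Leu-Arg-AMC (cruzain). Ki,app from linear curves; time-dependent inhibition as kobs/[I].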

Sequence of Rhodazain (Q95PM0 entry or part of it): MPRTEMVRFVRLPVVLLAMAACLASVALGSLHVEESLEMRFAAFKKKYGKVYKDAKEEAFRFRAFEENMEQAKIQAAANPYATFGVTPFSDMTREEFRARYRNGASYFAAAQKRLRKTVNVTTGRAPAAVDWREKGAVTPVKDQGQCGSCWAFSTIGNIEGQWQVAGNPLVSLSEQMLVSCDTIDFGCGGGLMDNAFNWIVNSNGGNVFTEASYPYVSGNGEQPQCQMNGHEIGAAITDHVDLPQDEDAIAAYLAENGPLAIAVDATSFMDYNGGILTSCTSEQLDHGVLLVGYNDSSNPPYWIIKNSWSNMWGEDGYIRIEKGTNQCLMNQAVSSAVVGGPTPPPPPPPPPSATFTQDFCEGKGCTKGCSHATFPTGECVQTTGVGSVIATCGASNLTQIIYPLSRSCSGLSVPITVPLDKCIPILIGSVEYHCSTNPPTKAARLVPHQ
Sequence of Cruzain (P25779 123-337): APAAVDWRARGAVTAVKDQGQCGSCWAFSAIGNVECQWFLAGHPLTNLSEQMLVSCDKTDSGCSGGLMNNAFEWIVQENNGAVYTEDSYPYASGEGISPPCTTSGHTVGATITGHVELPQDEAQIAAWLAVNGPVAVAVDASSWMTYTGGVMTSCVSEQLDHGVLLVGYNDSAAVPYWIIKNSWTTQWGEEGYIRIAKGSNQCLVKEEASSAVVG

SMILES | Ki ([1]; Rhodazain Ki (nM)) [nM] | Ki [2] [nM] | Ki ([1]; read-out: Rhodazain Ki) [nM]
CC(C)C[C@H](NC(=O)c1cc2ccccc2s1)C(=O)N[C@H]1CCCN(C(=O)Nc2ccccc2F)CC1=O (stereo in doubt) [Example 215, Benzo[b]thiophene-2-carboxylic acid {(S)-1-[1-(2-fluoro-phenylcarbamoyl)-3-oxo-azepan-4-ylcarbamoyl]-3-methyl-butyl}-amide] | 3.6 | 6.4 | –
CC(C)C[C@@H](NC(=O)c1ccnc2ccccc12)C(=O)N[C@@H]1CCCN(S(=O)(=O)c2ccccn2)CC1=O (stereo in doubt) [Example 26, Quinoline-4-carboxylic acid {(S)-3-methyl-1-[3-oxo-1-(pyridine-2-sulfonyl)-azepan-4-ylcarbamoyl]-butyl}amide] | 8.1 | 9.4 | –
Cc1oc(-c2ccccc2)nc1C(=O)N[C@@H](CC(C)C)C(=O)NC1CCCN(S(=O)(=O)c2ccccn2)CC1=O (stereo partly drawn) [Example 106, 5-Methyl-2-phenyl-oxazole-4-carboxylic acid {(S)-3-methyl-1-[3-oxo-1-(pyridine-2-sulfonyl)-azepan-4-ylcarbamoyl]-butyl}amide] | 5.8 | 16 | –
CC(C)C[C@@H](NC(=O)c1cc2ccccc2o1)C(=O)N[C@@H]1CCCN(S(=O)(=O)c2ccccn2)CC1=O [Example 16] | 5.5 | 6.1 | –
COc1cc2cc(C(=O)N[C@H](CC(C)C)C(=O)N[C@@H]3CCCN(S(=O)(=O)c4cccc[n+]4[O-])CC3=O)oc2cc1OC [Example 52, 5,6-Dimethoxy-benzofuran-2-carboxylic acid {(S)-3-methyl-1-[3-oxo-1-(1-oxy-pyridine-2-sulfonyl)-azepan-4-ylcarbamoyl]-butyl}amide] | 3.3 | 48 | –
Cc1ccc2oc(C(=O)NC(CC(C)C)C(=O)N[C@H]3CCN(S(=O)(=O)c4cccc[n+]4[O-])CCC3=O)c(C)c2c1 (single isomer, unassigned) [Example 206] | 4.9 | 6.6 | –
COc1cccc2cc(C(=O)N[C@@H](CC(C)C)C(=O)N[C@H]3CCCN(S(=O)(=O)c4nccs4)CC3=O)oc12 [Example 125] | 4.1 | 4 | –
CC(C)C[C@H](NC(=O)c1cc2ccccc2o1)C(=O)N[C@H]1CCCN(S(=O)(=O)c2cccs2)CC1=O [Example 142, Benzofuran-2-carboxylic acid-{(S)-3-methyl-1-[3-oxo-1-(thiophene-2-sulfonyl)-azepan-4-ylcarbamoyl]-butyl}-amide] | 5.2 | 2.4 | –
Cc1c(C(=O)N[C@@H](CC(C)C)C(=O)NC2CCCN(S(=O)(=O)c3ccccn3)CC2=O)oc2ccccc12 (stereo partly drawn) [Example 70, 3-Methyl-benzofuran-2-carboxylic acid {(S)-3-methyl-1-[3-oxo-1-(pyridine-2-sulfonyl)-azepan-4-ylcarbamoyl]-butyl}amide] | 5.5 | 6.6 | –
CC(C)C[C@@H](NC(=O)c1ccc(Br)o1)C(=O)N[C@@H]1CCCN(S(=O)(=O)c2cccc[n+]2[O-])CC1=O [Example 47] | 2.7 | 13 | –
CC(C)C[C@@H](NC(=O)c1ccc(Br)o1)C(=O)N[C@@H]1CCCN(S(=O)(=O)c2ccccn2)CC1=O (stereo in doubt) [Example 34, 5-Bromo-furan-2-carboxylic acid {(S)-3-methyl-1-[3-oxo-1-(pyridine-2-sulfonyl)-azepan-4-ylcarbamoyl]-butyl}amide] | 2.6 | 12 | –
CC(C)C[C@@H](NC(=O)c1cc2cc(F)c(F)cc2o1)C(=O)N[C@@H]1CCCN(S(=O)(=O)c2ccccn2)CC1=O (stereo in doubt) [Example 149, 5,6-Difluoro-benzofuran-2-carboxylic acid {(S)-3-methyl-1-[1-(pyridine-2-sulfonyl)-3-oxo-azepan-4-ylcarbamoyl]-butyl}amide] | 6.3 | 9.1 | –
Cc1c(C(=O)N[C@@H](CC(C)C)C(=O)N[C@H]2CCCN(S(=O)(=O)c3nccs3)CC2=O)oc2ccccc12 [Example 126, 3-Methylbenzofuran-2-carboxylic acid {(S)-3-methyl-1-[3-oxo-1-(thiazole-2-sulfonyl)-azepan-4-ylcarbamoyl]-butyl}amide] | 3.8 | 4.3 | –
CC(C)C[C@H](NC(=O)c1cc2ccccc2n1C)C(=O)N[C@H]1CCCN(S(=O)(=O)c2nccs2)CC1=O [Example 128, 1-Methyl-1H-indole-2-carboxylic acid{(S)-3-methyl-1-[3-oxo-1-(thiazole-2-sulfonyl)-azepan-4-ylcarbamoyl]-butyl}amide] | 8.2 | 17 | –
CCc1c(C(=O)NC(CC(C)C)C(=O)N[C@H]2CCN(S(=O)(=O)c3cccc[n+]3[O-])CCC2=O)oc2ccccc12 (single isomer, unassigned) [Example 207] | 5.4 | 10 | –
CC(C)CC(NC(=O)c1ccc(F)cc1)C(=O)N[C@@H]1CCCN(S(=O)(=O)c2cccc[n+]2[O-])CC1=O (stereo partly drawn) [Example 77, 4-Fluoro-{(S)-3-methyl-1-[3-oxo-1-(1-oxy-pyridine-2-sulfonyl)-azepan-4-carbamoyl]-butyl}-benzamide] | 7.9 | 15 | –
COc1ccc(C(=O)N[C@H](CC(C)C)C(=O)N[C@@H]2CCCN(S(=O)(=O)c3ccccc3C#N)CC2=O)cc1OC [Example 120] | 11 | 9.9 | –
COc1cccc2oc(C(=O)N[C@@H](CC(C)C)C(=O)NC3CCCN(S(=O)(=O)c4cccc[n+]4[O-])CC3=O)c(C)c12 (stereo partly drawn) [Example 209, 4-Methoxy-3-methyl-benzofuran-2-carboxylic acid {(S)-3-methyl-1-[3-oxo-1-(1-oxy-pyridine-2-sulfonyl)-azepan-4-ylcarbamoyl]-butyl}-amide] | – | 8.9 | 4.1
Cc1c(C(=O)N[C@H](CC(C)C)C(=O)N[C@H]2CCCN(S(=O)(=O)c3cccc[n+]3[O-])CC2=O)oc2ccc(F)cc12 (single isomer, unassigned) [Example 195] | 6.6 | 9.4 | –
Cc1ccc(C(=O)NC(CC(C)C)C(=O)N[C@@H]2CCCN(S(=O)(=O)c3cccc[n+]3[O-])CC2=O)s1 (stereo partly drawn) [Example 79, 5-Methyl-thiophene-2-carboxylic acid {(S)-3-methyl-1-[3-oxo-1-(1-oxy-1pyridine-2-sulfonyl)-azepan-4-ylcarbamoyl]-butyl}amide] | 8 | 16 | –
CC(C)C[C@H](NC(=O)c1cc2cc(O)ccc2o1)C(=O)N[C@H]1CCCN(S(=O)(=O)c2cn(C)cn2)CC1=O [Example 44, 5-Hydroxy-benzofuran-2-carboxylic acid {(S)-3-methyl-1-[1-(1-methyl-1H-imidazole-4-sulfonyl)-3-oxo-azepan-4-ylcarbamoyl]-butyl}amide] | 7.2 | 11 | –
O=C(N[C@@H](Cc1ccccc1)C(=O)NC1CCCN(S(=O)(=O)c2ccccn2)CC1=O)c1cccc2cccnc12 (stereo partly drawn) [Example 176, Quinoline-8-carboxylic acid {(S)-1-[3-oxo-1-(pyridine-2-sulfonyl)-azepan-4-ylcarbamoyl]-2-phenyl-ethyl}-amide] | 5.9 | – | –
CC(C)C[C@@H](NC(=O)c1cnc2ccccc2n1)C(=O)N[C@@H]1CCCN(S(=O)(=O)c2cccc[n+]2[O-])CC1=O [Example 101, Quinoxaline-2-carboxylic acid {(S)-3-methyl-1-[3-oxo-1-(1-oxy-pyridine-2-sulfonyl)-azepan-4-ylcarbamoyl]-butyl}amide] | 11 | – | –
CC(C)C[C@H](NC(=O)c1cc2ccccc2o1)C(=O)N[C@@H]1CCCN(S(C)(=O)=O)CC1=O [Example 112, Benzofuran-2-carboxylic acid-{(S)-1-(1-methanesulfonyl-3-oxo-azepan-4-ylcarbamoyl)-3-methyl-butyl]-amide] | 8.5 | – | –
CC(C)C[C@@H](NC(=O)c1ccc(-c2ccc([N+](=O)[O-])cc2)o1)C(=O)N[C@@H]1CCCN(S(=O)(=O)c2ccccn2)CC1=O (stereo in doubt) [Example 36, 5-(4-Nitro-phenyl)-furan-2-carboxylic acid {(S)-3-methyl-1-[3-oxo-1-(pyridine-2-sulfonyl)-azepan-4-ylcarbamoyl]-butyl}amide] | 9.1 | – | –
